Measurements published in PubChem BioAssay (NCI).
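Results reflect a 48-hour exposure of cells in 96-well plates to compound at five concentrations. Abbreviation: GI50, concentration required for 50% inhibition of growth. TGI marks complete inhibition of growth.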

Experiments:
Assay in all cases: growth of human tumour cells (NCI), 48 h
MOLT-4 leukemia = test system: MOLT-4 leukemia
OVCAR-3 ovarian = test system: OVCAR-3 ovarian
HOP-92 NSCLC = test system: HOP-92 NSCLC
MALME-3M melanoma = test system: MALME-3M melanoma
TK-10 renal = test system: TK-10 renal
A549 NSCLC = test system: A549 NSCLC
CCRF-CEM leukemia = test system: CCRF-CEM leukemia
SN12C renal = test system: SN12C renal
M14 melanoma = test system: M14 melanoma
T-47D breast = test system: T-47D breast

SMILES | TGI (MOLT-4 leukemia) [µM] | TGI (OVCAR-3 ovarian) [µM] | TGI (HOP-92 NSCLC) [µM] | TGI (MALME-3M melanoma) [µM] | TGI (TK-10 renal) [µM] | TGI (A549 NSCLC) [µM] | TGI (CCRF-CEM leukemia) [µM] | TGI (SN12C renal) [µM] | TGI (M14 melanoma) [µM] | GI50 (MOLT-4 leukemia) [µM] | GI50 (OVCAR-3 ovarian) [µM] | GI50 (MALME-3M melanoma) [µM] | GI50 (TK-10 renal) [µM] | GI50 (A549 NSCLC) [µM] | GI50 (CCRF-CEM leukemia) [µM] | GI50 (SN12C renal) [µM] | GI50 (M14 melanoma) [µM] | GI50 (T-47D breast) [µM] | TGI (T-47D breast) [µM] | GI50 (HOP-92 NSCLC) [µM]
CN(C)C(=O)c1ccc([N+](=O)[O-])cc1 | > 100 | > 100 | > 100 | > 100 | > 100 | > 100 | > 100 | > 100 | > 100 | – | – | – | – | – | – | – | – | – | – | –
CCc1cccc(C)c1NC(=O)C1=C(C)NC(C)=C(C(=O)Nc2c(C)cccc2CC)C1c1ccc2c(c1)OCO2 | 72.8 | 39.8 | 59.3 | 30.5 | 80.1 | 43.6 | 51.2 | 42.6 | 33.8 | – | – | – | – | – | – | – | – | – | – | –
CC(=O)[O][Sn]([CH2]c1ccccc1)([CH2]c1ccccc1)[CH2]c1ccccc1 | > 10 | > 10 | – | > 6.05 | > 5.43 | > 10 | > 6.27 | > 10 | > 10 | > 10 | > 6.14 | > 4.38 | > 3.8 | > 8.99 | > 4.58 | > 10 | > 8.37 | > 10 | > 10 | –
CCSc1nc(SCC)c2c(-c3ccc(OC)c(OC)c3)c(C#N)c(SCC)nc2n1 | > 100 | 32.5 | 76.7 | – | 53.3 | 79.1 | > 100 | 56.7 | > 100 | 68.5 | 10.5 | – | 17.5 | 30.4 | 83.7 | 21.7 | 56.2 | – | – | 23.2
CC1(C)CC2CC(CC(C)(C)C2=O)C1=O | > 100 | > 100 | > 100 | > 100 | > 100 | > 100 | > 100 | > 100 | > 100 | – | – | – | – | – | – | – | – | – | – | –
C[CH2][Sn]([CH2]C)([O]C(=O)c1ccccc1F)[O][Sn]([CH2]C)([CH2]C)[O]C(=O)c1ccccc1F | > 75.3 | > 56.3 | 34.7 | 30.4 | 32.1 | > 100 | 21.6 | > 57.4 | > 57.2 | 22 | > 42 | 14.9 | 18 | > 100 | 4.67 | 27 | 26.5 | – | – | 19
O=[N+]([O-])c1ccc(N=Nc2ccc(O)c3ccccc23)cc1 | > 100 | 6 | 2.94 | 32.7 | > 100 | > 100 | 35.7 | > 100 | – | 5.22 | 1.77 | 12 | 2.81 | 12 | 4.24 | 3.55 | – | – | – | 0.281
COc1cccc(NC(=O)CC(=O)N2N=C(n3ccc4ccccc43)CC2c2ccccc2)c1 (centres undefined) | > 100 | > 100 | > 100 | > 100 | > 100 | > 100 | > 100 | > 100 | > 100 | – | – | – | – | – | – | – | – | – | – | –
